“And” between values parts separate entries of the source, which are not always exact repeats. Equal values may be shown once. Numbers after ± are expanded uncertainties.
Assay: mn = molality of the nth substance listed, in mol/kg
Conditions: 81.5 kPa, Liquid; for mass density: Vibrating tube method; for viscosity: Capillary tube (Ostwald / Ubbelohde) method

NCC(=O)O [2-aminoacetic acid] + O
mass density [kg/m3]
Conditions	m1 = 0.1001	m1 = 0.1498	m1 = 0.1998	m1 = 0.2497	m1 = 0.2999	m1 = 0.3502	m1 = 0.4005	m1 = 0.45	m1 = 0.4993
303.15 K	998.79 ± 0.3	1000.34 ± 0.3	1001.88 ± 0.3	1003.42 ± 0.3	1004.95 ± 0.3	1006.44 ± 0.3	1007.94 ± 0.3	1009.44 ± 0.3	1010.87 ± 0.3
308.15 K	997.12 ± 0.3	–	1000.16 ± 0.3	1001.68 ± 0.3	1003.19 ± 0.3	1004.66 ± 0.3	1006.15 ± 0.3	1007.62 ± 0.3	1009.05 ± 0.3
313.15 K	995.14 ± 0.3	996.61 ± 0.3	998.06 ± 0.3	999.5 ± 0.3	1000.94 ± 0.3	1002.34 ± 0.3	1003.74 ± 0.3	1005.12 ± 0.3	1006.46 ± 0.3

C[C@H](N)C(=O)O [(S)-2-aminopropanoic acid] + O
mass density [kg/m3]
Conditions	m1 = 0.1001	m1 = 0.1501	m1 = 0.1998	m1 = 0.2502	m1 = 0.3	m1 = 0.3501	m1 = 0.3986	m1 = 0.4493	m1 = 0.4994
303.15 K	998.46 ± 0.3	999.85 ± 0.3	1001.23 ± 0.3	1002.6 ± 0.3	1003.96 ± 0.3	1005.32 ± 0.3	1006.62 ± 0.3	1007.97 ± 0.3	1009.28 ± 0.3
308.15 K	996.83 ± 0.3	998.21 ± 0.3	999.58 ± 0.3	1000.94 ± 0.3	1002.29 ± 0.3	1003.64 ± 0.3	1004.93 ± 0.3	1006.27 ± 0.3	1007.56 ± 0.3
313.15 K	995 ± 0.3	996.39 ± 0.3	997.76 ± 0.3	999.11 ± 0.3	1000.45 ± 0.3	1001.77 ± 0.3	1003.07 ± 0.3	1004.36 ± 0.3	1005.62 ± 0.3

CC(C)[C@H](N)C(=O)O [L-valine] + O
mass density [kg/m3]
Conditions	m1 = 0.1004	m1 = 0.1489	m1 = 0.1996	m1 = 0.2497	m1 = 0.3001	m1 = 0.3488	m1 = 0.3995	m1 = 0.4501	m1 = 0.4989
303.15 K	998.27 ± 0.3	999.57 ± 0.3	1000.84 ± 0.3	1002.1 ± 0.3	1003.33 ± 0.3	1004.55 ± 0.3	1005.74 ± 0.3	1006.93 ± 0.3	1008.09 ± 0.3
308.15 K	996.63 ± 0.3	997.9 ± 0.3	999.16 ± 0.3	1000.41 ± 0.3	1001.63 ± 0.3	1002.84 ± 0.3	1004.02 ± 0.3	1005.2 ± 0.3	1006.34 ± 0.3
313.15 K	994.92 ± 0.3	996.25 ± 0.3	997.55 ± 0.3	998.83 ± 0.3	1000.05 ± 0.3	1001.27 ± 0.3	1002.46 ± 0.3	1003.61 ± 0.3	1004.75 ± 0.3

O=C([O-])c1ccccc1.[Na+] [sodium benzoate] + O
Conditions	mass density, 303.15 K	mass density, 308.15 K	mass density, 313.15 K	viscosity, 303.15 K	viscosity, 308.15 K	viscosity, 313.15 K
m1 = 0.1011	1001.3 ± 0.3 kg/m3 and 1001.31 ± 0.3 kg/m3	999.49 ± 0.3 kg/m3 and 999.34 ± 0.3 kg/m3 and 999.62 ± 0.3 kg/m3	997.41 ± 0.3 kg/m3 and 997.51 ± 0.3 kg/m3	0.845 ± 0.08 mPa·s and 0.84 ± 0.08 mPa·s	0.757 ± 0.08 mPa·s and 0.758 ± 0.08 mPa·s	0.686 ± 0.08 mPa·s and 0.691 ± 0.08 mPa·s
m1 = 0.3088	1012.46 ± 0.3 kg/m3 and 1012.49 ± 0.3 kg/m3	1010.59 ± 0.3 kg/m3 and 1010.54 ± 0.3 kg/m3 and 1010.6 ± 0.3 kg/m3	1008.16 ± 0.3 kg/m3 and 1008.27 ± 0.3 kg/m3 and 1008.53 ± 0.3 kg/m3	0.92 ± 0.08 mPa·s and 0.926 ± 0.08 mPa·s and 0.931 ± 0.08 mPa·s	0.821 ± 0.08 mPa·s and 0.837 ± 0.08 mPa·s	0.748 ± 0.08 mPa·s and 0.753 ± 0.08 mPa·s
m1 = 0.5245	1023.61 ± 0.3 kg/m3 and 1023.59 ± 0.3 kg/m3 and 1023.51 ± 0.3 kg/m3	1021.52 ± 0.3 kg/m3 and 1021.61 ± 0.3 kg/m3 and 1021.49 ± 0.3 kg/m3	1019.94 ± 0.3 kg/m3	1.024 ± 0.08 mPa·s and 1.013 ± 0.08 mPa·s and 1.019 ± 0.08 mPa·s	0.918 ± 0.08 mPa·s and 0.912 ± 0.08 mPa·s	0.806 ± 0.08 mPa·s and 0.812 ± 0.08 mPa·s and 0.817 ± 0.08 mPa·s

Reference: the NIST ThermoML archive (doi:10.1021/acs.jced.5b01031)
